Laboratory results from patent US20190388425A1, “SUBSTITUTED IMIDAZOPYRIDINPYRIMIDINES” (Bayer Pharma Aktiengesellschaft, priority 2017, published 2019).
pIC50: −log10 of the molar value.

Target: T1, human full-length MKNK1 (Homo sapiens, UniProt Q9BUB5, T385D)
T1 construct: GST (N); purchased Carna Biosciences 02-145; host or cells: insect cells (baculovirus expression system)
Assay: MKNK1 kinase high ATP assay (TR-FRET)
Type: biochemical
Conditions: TR-FRET, 2 mM ATP (high ATP), 15 min preincubation with enzyme, 30 min reaction at 22° C.; read-out: MKNK1 IC50
Experimental: MKNK1 Kinase High ATP Assay
MKNK1-inhibitory activity at high ATP of compounds of the present invention after their preincubation with MKNK1 was quantified employing the TR-FRET-based MKNK1 high ATP assay as described in the following paragraphs.
As substrate for the kinase reaction the biotinylated peptide biotin-Ahx-[…] (C-terminus in amide form) was used, which can be purchased e.g. from the company Biosyntan (Berlin-Buch, Germany).
For the assay 50 nL of a 100 fold concentrated solution of the test compound in DMSO was pipetted into a black low volume 384 well microtiter plate (Greiner Bio-One, Frickenhausen, Germany), 2 μL of a solution of MKNK1 in aqueous assay buffer [50 mM HEPES pH 7.5, 5 mM MgCl2, 1.0 mM dithiothreitol, 0.005% (v/v) Nonidet-P40 (Sigma)] was added and the mixture was incubated for 15 min at 22° C. to allow pre-binding of the test compounds to the enzyme before the start of the kinase reaction. Then the kinase reaction was started by the addition of 3 μL of a solution of adenosine-tri-phosphate (ATP, 3.3 mM=>final conc. in the 5 μL assay volume is 2 mM) and substrate (0.1 μM=>final conc. in the 5 μL assay volume is 0.06 μM) in assay buffer and the resulting mixture was incubated for a reaction time of 30 min at 22° C. The concentration of MKNK1 was adjusted depending of the activity of the enzyme lot and was chosen appropriate to have the assay in the linear range, typical concentrations were in the range of 0.003 μg/mL. The reaction was stopped by the addition of 5 μL of a solution of TR-FRET detection reagents (5 nM streptavidine-XL665 [Cisbio Bioassays, Codolet, France] and 1 nM anti-ribosomal protein S6 (pSer236)-antibody from Invitrogen [#44921G] and 1 nM LANCE EU-W1024 labeled ProteinG [Perkin-Elmer, product no. AD0071]) in an aqueous EDTA-solution (100 mM EDTA, 0.1% (w/v) bovine serum albumin in 50 mM HEPES pH 7.5).
The resulting mixture was incubated for 1 h at 22° C. to allow the formation of complex between the phosphorylated biotinylated peptide and the detection reagents. Subsequently the amount of phosphorylated substrate was evaluated by measurement of the resonance energy transfer from the Eu-chelate to the streptavidine-XL. Therefore, the fluorescence emissions at 620 nm and 665 nm after excitation at 350 nm were measured in a TR-FRET reader, e.g. a Rubystar (BMG Labtechnologies, Offenburg, Germany) or a Viewlux (Perkin-Elmer). The ratio of the emissions at 665 nm and at 622 nm was taken as the measure for the amount of phosphorylated substrate.

T1 sequence (Q9BUB5 1-424 isoform Q9BUB5-2 T344D): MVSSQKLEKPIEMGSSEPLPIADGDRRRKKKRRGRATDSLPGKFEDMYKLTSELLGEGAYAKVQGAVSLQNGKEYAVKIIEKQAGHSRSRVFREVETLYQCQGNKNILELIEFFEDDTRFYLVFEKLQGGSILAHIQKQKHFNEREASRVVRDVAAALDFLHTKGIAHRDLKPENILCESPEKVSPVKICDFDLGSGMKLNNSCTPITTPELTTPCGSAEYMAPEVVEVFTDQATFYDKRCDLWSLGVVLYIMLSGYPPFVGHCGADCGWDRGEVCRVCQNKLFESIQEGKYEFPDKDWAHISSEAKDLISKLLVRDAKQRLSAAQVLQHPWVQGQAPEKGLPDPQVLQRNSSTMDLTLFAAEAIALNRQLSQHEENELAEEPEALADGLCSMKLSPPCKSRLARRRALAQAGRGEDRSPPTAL

Row | SMILES | pIC50
1 | Cc1cc(Nc2ncnc3sc4c(c23)CC[C@H](C(=O)N(C)C)C4)c(=O)n2c1C(=O)NC21CCC1 [Example 20, (7S)—N,N-Dimethyl-4-[(8′-methyl-1′,5′-dioxo-1′,5′-dihydro-2′H-spiro[cyclobutane-1,3′-imidazo[1,5-a]pyridin]-6′-yl)amino]-5,6,7,8-tetrahydro[1]benzothieno[2,3-d]pyrimidine-7-carboxamide] | 9.22
2 | Cc1cc(Nc2ncnc3sc4c(c23)CC[C@H](C(=O)N2CCC2)C4)c(=O)n2c1C(=O)NC21CCC1 [Example 21, 6′-{[(7S)-7-(Azetidin-1-ylcarbonyl)-5,6,7,8-tetrahydro[1]benzothieno[2,3-d]pyrimidin-4-yl]amino}-8′-methyl-2′H-spiro[cyclobutane-1,3′-imidazo[1,5-a]pyridine]-1′,5′-dione] | 9.22
3 | Cc1cc(Nc2ncnc3sc4c(c23)CC[C@H](C(=O)N2CC(C#N)C2)C4)c(=O)n2c1C(=O)NC21CCC1 [Example 22, 1-({(7S)-4-[(8′-Methyl-1′,5′-dioxo-1′,5′-dihydro-2′H-spiro[cyclobutane-1,3′-imidazo[1,5-a]pyridin]-6′-yl)amino]-5,6,7,8-tetrahydro[1]benzothieno[2,3-d]pyrimidin-7-yl}carbonyl)azetidine-3-carbonitrile] | 9.30
4 | Cc1cc(Nc2ncnc3sc4c(c23)CC[C@H](C(=O)N2CC(N(C)C)C2)C4)c(=O)n2c1C(=O)NC21CCC1 [Example 23, 6′-{[(7S)-7-{[3-(Dimethylamino)azetidin-1-yl]carbonyl}-5,6,7,8-tetrahydro[1]benzothieno[2,3-d]pyrimidin-4-yl]amino}-8′-methyl-2′H-spiro[cyclobutane-1,3′-imidazo[1,5-a]pyridine]-1′,5′-dione] | 9.40
5 | Cc1cc(Nc2ncnc3sc4c(c23)CC[C@H](C(=O)N2CC[C@H](N(C)C)C2)C4)c(=O)n2c1C(=O)NC21CCC1 [Example 24, 6′-{[(7S)-7-{[(3S)-3-(Dimethylamino)pyrrolidin-1-yl]carbonyl}-5,6,7,8-tetrahydro[1]benzothieno[2,3-d]pyrimidin-4-yl]amino}-8′-methyl-2′H-spiro[cyclobutane-1,3′-imidazo[1,5-a]pyridine]-1′,5′-dione] | 9.70
6 | Cc1cc(Nc2ncnc3sc4c(c23)CC[C@H](C(=O)N2CCN(C)[C@H](C)C2)C4)c(=O)n2c1C(=O)NC21CCC1 [Example 25, 6′-{[(7S)-7-{[(3R)-3,4-Dimethylpiperazin-1-yl]carbonyl}-5,6,7,8-tetrahydro[1]benzothieno[2,3-d]pyrimidin-4-yl]amino}-8′-methyl-2′H-spiro[cyclobutane-1,3′-imidazo[1,5-a]pyridine]-1′,5′-dione] | 9.40
7 | Cc1cc(Nc2ncnc3sc4c(c23)CC[C@H](C(=O)N2C[C@H]3C[C@@H]2CO3)C4)c(=O)n2c1C(=O)NC21CCC1 [Example 26, 8′-Methyl-6′-({(7S)-7-[(1R,4R)-2-oxa-5-azabicyclo[2.2.1]hept-5-ylcarbonyl]-5,6,7,8-tetrahydro[1]benzothieno[2,3-d]pyrimidin-4-yl}amino)-2′H-spiro[cyclobutane-1,3′-imidazo[1,5-a]pyridine]-1′,5′-dione] | 9.15
8 | Cc1cc(Nc2ncnc3sc4c(c23)CC[C@H](C(=O)N(C)C)C4)c(=O)n2c1C(=O)NC2(C)C [Example 27, (7S)—N,N-Dimethyl-4-[(3,3,8-trimethyl-1,5-dioxo-1,2,3,5-tetrahydroimidazo[1,5-a]pyridin-6-yl)amino]-5,6,7,8-tetrahydro[1]benzothieno[2,3-d]pyrimidine-7-carboxamide] | 8.70
9 | Cc1cc(Nc2ncnc3sc4c(c23)CC[C@H](C(=O)N2CCC2)C4)c(=O)n2c1C(=O)NC2(C)C [Example 28, 6-{[(7S)-7-(Azetidin-1-ylcarbonyl)-5,6,7,8-tetrahydro[1]benzothieno[2,3-d]pyrimidin-4-yl]amino}-3,3,8-trimethyl-2,3-dihydroimidazo[1,5-a]pyridine-1,5-dione] | 9.00
10 | Cc1cc(Nc2ncnc3sc4c(c23)CC[C@H](C(=O)N2CC(C#N)C2)C4)c(=O)n2c1C(=O)NC2(C)C [Example 29, 1-({(7S)-4-[(3,3,8-Trimethyl-1,5-dioxo-1,2,3,5-tetrahydroimidazo[1,5-a]pyridin-6-yl)amino]-5,6,7,8-tetrahydro[1]benzothieno[2,3-d]pyrimidin-7-yl}carbonyl)azetidine-3-carbonitrile] | 9.00
11 | Cc1cc(Nc2ncnc3sc4c(c23)CC[C@H](C(=O)N2CC(N(C)C)C2)C4)c(=O)n2c1C(=O)NC2(C)C [Example 30, 6-{[(7S)-7-{[3-(Dimethylamino)azetidin-1-yl]carbonyl}-5,6,7,8-tetrahydro[1]benzothieno[2,3-d]pyrimidin-4-yl]amino}-3,3,8-trimethyl-2,3-dihydroimidazo[1,5-a]pyridine-1,5-dione] | 8.89
12 | Cc1cc(Nc2ncnc3sc4c(c23)CC[C@H](C(=O)N2CC[C@H](N(C)C)C2)C4)c(=O)n2c1C(=O)NC2(C)C [Example 31, 6-{[(7S)-7-{[(3S)-3-(Dimethylamino)pyrrolidin-1-yl]carbonyl}-5,6,7,8-tetrahydro[1]benzothieno[2,3-d]pyrimidin-4-yl]amino}-3,3,8-trimethyl-2,3-dihydroimidazo[1,5-a]pyridine-1,5-dione] | 9.05
13 | Cc1cc(Nc2ncnc3sc4c(c23)CC[C@H](C(=O)N2CCN(C)[C@H](C)C2)C4)c(=O)n2c1C(=O)NC2(C)C [Example 32, 6-{[(7S)-7-{[(3R)-3,4-Dimethylpiperazin-1-yl]carbonyl}-5,6,7,8-tetrahydro[1]benzothieno[2,3-d]pyrimidin-4-yl]amino}-3,3,8-trimethyl-2,3-dihydroimidazo[1,5-a]pyridine-1,5-dione] | 9.30
14 | Cc1cc(Nc2ncnc3sc4c(c23)CC[C@H](C(=O)N2C[C@H]3C[C@@H]2CO3)C4)c(=O)n2c1C(=O)NC2(C)C [Example 33, 3,3,8-Trimethyl-6-({(7S)-7-[(1R,4R)-2-oxa-5-azabicyclo[2.2.1]hept-5-ylcarbonyl]-5,6,7,8-tetrahydro[1]benzothieno[2,3-d]pyrimidin-4-yl}amino)-2,3-dihydroimidazo[1,5-a]pyridine-1,5-dione] | 9.10
15 | Cc1cc(Nc2ncnc3sc4c(c23)CC[C@H](C(=O)O)C4)c(=O)n2c1C(=O)NC21CCCC1 [Example 34, (7S)-4-[(8′-Methyl-1′,5′-dioxo-1′,5′-dihydro-2′H-spiro[cyclopentane-1,3′-imidazo[1,5-a]pyridin]-6′-yl)amino]-5,6,7,8-tetrahydro[1]benzothieno[2,3-d]pyrimidine-7-carboxylic acid] | 8.33
16 | Cc1cc(Nc2ncnc3sc4c(c23)CC[C@H](C(=O)N2CCN(C)[C@H](C)C2)C4)c(=O)n2c1C(=O)NC21CCCC1 [Example 35, 6′-{[(7S)-7-{[(3R)-3,4-Dimethylpiperazin-1-yl]carbonyl}-5,6,7,8-tetrahydro[1]benzothieno[2,3-d]pyrimidin-4-yl]amino}-8′-methyl-2′H-spiro[cyclopentane-1,3′-imidazo[1,5-a]pyridine]-1′,5′-dione] | 9.40
17 | Cc1cc(Nc2ncnc3sc4c(c23)CC[C@H](C(=O)N2C[C@H]3C[C@@H]2CO3)C4)c(=O)n2c1C(=O)NC21CCCC1 [Example 36, 8′-Methyl-6′-({(7S)-7-[(1R,4R)-2-oxa-5-azabicyclo[2.2.1]hept-5-ylcarbonyl]-5,6,7,8-tetrahydro[1]benzothieno[2,3-d]pyrimidin-4-yl}amino)-2′H-spiro[cyclopentane-1,3′-imidazo[1,5-a]pyridine]-1′,5′-dione] | 8.89
18 | Cc1cc(Nc2ncnc3sc4c(c23)CC[C@H](C(=O)N(C)C)C4)c(=O)n2c1C(=O)NC21CCCC1 [Example 37, (7S)—N,N-Dimethyl-4-[(8′-methyl-1′,5′-dioxo-1′,5′-dihydro-2′H-spiro[cyclopentane-1,3′-imidazo[1,5-a]pyridin]-6′-yl)amino]-5,6,7,8-tetrahydro[1]benzothieno[2,3-d]pyrimidine-7-carboxamide] | 9.15
19 | Cc1cc(Nc2ncnc3sc4c(c23)CC[C@H](C(=O)N2CCC2)C4)c(=O)n2c1C(=O)NC21CCCC1 [Example 38, 6′-{[(7S)-7-(Azetidin-1-ylcarbonyl)-5,6,7,8-tetrahydro[1]benzothieno[2,3-d]pyrimidin-4-yl]amino}-8′-methyl-2′H-spiro[cyclopentane-1,3′-imidazo[1,5-a]pyridine]-1′,5′-dione] | 8.51
